From PMC12368495, “Pharmacokinetic/pharmacodynamic parameters of teicoplanin for predicting clinical outcome of glycopeptide-susceptible Enterococcus faecium bacteraemia” (JAC-Antimicrobial Resistance, 2025)

Assays:
[1] = in vivo; cited from earlier work
Method: (§1) The estimation of fAUC24 involved a multi-step process. First, the total drug AUC over a 24-h interval during the maintenance phase (AUC24) was calculated for each patient. This was based on individual total clearance (CLtotal) estimated from the observed Cmin through Bayesian analysis. This analysis employed a previously developed population PK (PopPK) model for Japanese patients constructed by Nakayama et al.[23] This PopPK model was based on data from 120 Japanese adult inpatients with MRSA infections and incorporates creatinine clearance and body weight as covariates, making it applicable ...

[2] = tested on: GSEF bacteraemia; assay: Clinical outcomes of teicoplanin-treated GSEF bacteraemia (retrospective cohort); type: in vivo, human; details: for Treatment failure: 30-day all-cause mortality or microbiological failure
Method: We conducted a retrospective, single-centre, observational cohort study at The University of Tokyo Hospital between 1 April 2009 and 30 May 2023. The University of Tokyo’s ethics review board approved the study protocol (approval no. 2023138NI) and waived the requirement for written informed consent. The study was conducted in accordance with the ethical standards of the 1964 Declaration of Helsinki and its subsequent amendments. Patients with at least one GSEF-positive blood culture who received teicoplanin during the study period were deemed eligible. The exclusion criteria were as follows: lack of storage of microbiological samples, lack of teicoplanin trough concentration (Cmin), age under 18 years, renal replacement therapy or initiation of teicoplanin treatment more than 72 h after infection. GSEF bacteraemia was defined as one or more blood cultures positive for E. faecium resistant to ampicillin, and susceptible to teicoplanin and vancomycin, accompanied by signs or symptoms of infection consistent with suspected infection sites, as established in previous studies.[9],[15],[16] Polymicrobial infections were included in the analysis. For patients with a history of multiple treatments for GSEF bacteraemia, only the first treatment was considered.
The primary outcome, treatment failure, was defined as a composite of (i) 30-day all-cause mortality or (ii) microbiological failure, defined as persistent bacteraemia (a positive follow-up blood culture obtained >72 h after initiation of appropriate therapy) in patients with at least one follow-up blood culture).[28],[29] In patients without follow-up blood cultures, microbiological failure was not assessed, and treatment failure was determined solely based on 30-day all-cause mortality. […] Secondary outcomes included 90-day all-cause mortality (death within 90 days of the first positive GSEF blood culture), in-hospital mortality (death occurring during hospitalization), relapse (recurrence of GSEF bacteraemia after negative blood cultures following GSEF treatment) and readmission within 90 days of the first positive GSEF blood culture. Relapse was defined as recurrence of GSEF bacteraemia after documented microbiological clearance, confirmed by at least one negative follow-up blood culture. All clinical outcomes and PK parameter estimation (including AUC calculation) were conducted by an infectious disease pharmacist with access to treatment details and patient clinical courses. MIC measurements were performed independently by separate investigators and were integrated only after clinical outcome evaluation was completed. Safety outcomes included (i) incidence of AKI, diagnosed according to the KDIGO criteria (defined as 1.5× increase in sCr from baseline within 7 days or ≥0.3 mg/dL increase within 48 h of baseline following teicoplanin initiation)[30]; (ii) incidence of liver injury, defined as AST ≥ 90 U/L or ALT ≥ 126 U/L (≥3 times the upper limit during teicoplanin treatment)[31]; and (iii) other adverse events associated with teicoplanin use for GSEF bacteraemia.[15]
Continuous variables, expressed as medians with IQRs, were compared between the treatment success and treatment failure groups using the Mann–Whitney U-test. Categorical variables were compared between the two groups using the χ² test or Fisher’s exact test, as appropriate. To identify predictors of treatment failure, several steps were taken for the logistic regression analysis. First, classification and regression tree (CART) analysis was used to identify the optimal cut-off value for the fAUC24/MICEtest associated with treatment failure, according to the previous vancomycin PK/PD study.[32] This created a dichotomous variable for the PK/PD parameter. Next, a multivariable logistic regression model was constructed to assess the independent effect of the fAUC24/MICEtest on treatment failure. […]

[3] = tested on: GSEF bacteraemia; details: cited from earlier work
[4] = tested on: glycopeptide-susceptible Enterococcus faecium (GSEF); assay: Teicoplanin MIC by gradient diffusion method (Etest) on archived blood isolates; type: cell-based; details: for MICEtest: median (IQR), Etest
Method: For this study, teicoplanin MIC determinations were performed on archived isolates using a commercial automated broth microdilution method with the MicroScan WalkAway-96 Plus system (MICWalkAway) (Beckman Coulter) and gradient diffusion method (MICEtest) (Etest, bioMérieux) following the manufacturer’s instructions. Due to a change in the MIC measurement range during the study period, all isolates were remeasured using the MicroScan WalkAway-96 Plus system for consistency. The MICWalkAway measurement range was 2, 4, 8, and 16 mg/L. The MICEtest results were reviewed and confirmed independently by three clinical microbiologists who were blinded to the clinical outcomes of the patients from whom the isolates were obtained. In cases where disagreement occurred among all three operators, the MIC was retested and determined by the representative operator, taking the initial results into consideration.

[5] = Teicoplanin trough concentration and Bayesian estimation of AUC24/fAUC24 in patients; type: in vivo, human
Method: The primary PK/PD parameter for this study was the ratio of the estimated 24-h free-drug area under the curve to the MIC (fAUC24/MICEtest). The estimation of fAUC24 was based on total Cmin measured during the maintenance phase of therapy (at least 3 days after treatment initiation). Our institutional dosing protocol recommends a loading dose of 8–10 mg/kg administered three times approximately every 12 h within the first 48 h for patients with normal renal function, followed by a maintenance dose of 6 mg/kg once daily from Day 3. This loading regimen is intended to rapidly achieve therapeutic concentrations, allowing Cmin values measured during the maintenance phase to serve as a reliable surrogate for drug exposure. Teicoplanin doses were routinely proposed by a pharmacist using therapeutic drug monitoring (TDM) with a target Cmin for teicoplanin set at 15–30 mg/L in line with guideline recommendations,[22] though actual dosing was determined at the discretion of the attending physician.
as §1, with “to our study population. […] Based on the estimated CLtotal for each patient, the AUC24 was calculated as AUC24 (mg·h/L) = daily maintenance dose (mg)/CLtotal (L/h).[13],[24] Second, to account for the impact of hypoalbuminaemia, a patient-specific unbound fraction (fu) was estimated based on a validated model developed specifically for teicoplanin in a Japanese patient population by Yano et al.[25] The model predicts the fu using the patient’s ALB concentration with the following formula: […]” for “...”
where ALB is expressed in g/dL.
Finally, the free AUC24 (fAUC24) was estimated by multiplying the total AUC24 by fu. The resulting fAUC24/MICEtest ratio was used for all subsequent PK/PD analyses.
PK parameters for each patient were determined using the TDM software, BMs-Pod (ver 8.06, https://bmspod.web.fc2.com/).[26],[27]

[6] = tested on: glycopeptide-susceptible Enterococcus faecium (GSEF); assay: Teicoplanin MIC by automated broth microdilution (MicroScan WalkAway-96 Plus); type: cell-based; details: all isolates; measurement range 2, 4, 8, 16 mg/L
Method: Blood culture specimens were processed using the BACTEC FX system (Becton Dickinson Microbiology Systems, Sparks, MD, USA). Species identification of bacterial isolates recovered from blood cultures was performed using the MALDI Biotyper 1.0 (Bruker Daltonics, Bremen, Germany). Antimicrobial susceptibilities to ampicillin and teicoplanin were tested using the MicroScan WalkAway system (Beckman Coulter Japan, Tokyo, Japan) and interpreted according to the Clinical and Laboratory Standards Institute (M100-S26) breakpoints.[21] Polymicrobial bacteraemia was defined as cases where one or more microorganisms, in addition to E. faecium, were isolated from the same blood culture and were not classified as contaminants according to the CDC criteria.[16]
For this study, teicoplanin MIC determinations were performed on archived isolates using a commercial automated broth microdilution method with the MicroScan WalkAway-96 Plus system (MICWalkAway) (Beckman Coulter) and gradient diffusion method (MICEtest) (Etest, bioMérieux) following the manufacturer’s instructions. […] In cases where disagreement occurred among all three operators, the MIC was retested and determined by the representative operator, taking the initial results into consideration.

[7] = cited from earlier work
Text: The PK/PD parameter most commonly associated with the clinical efficacy of teicoplanin against MRSA is the ratio of the AUC to the MIC, referred to as AUC/MIC.[10],[11] The target AUC/MIC ratio for teicoplanin against MRSA is approximately 600–900, and achieving this target is known to improve therapeutic outcomes.[12],[13] Furthermore, teicoplanin is a highly protein-bound drug (approximately 90%), and it is the unbound (free) fraction that exerts antimicrobial activity. In critically ill patients, conditions such as hypoalbuminaemia can alter protein binding, potentially affecting the free d ...

In the case of teicoplanin, the “inter-individual variability (CV%) for clearance (CL)” value [1] is listed as 22.1%, the “inter-individual variability (CV%) for volume of distribution (V)” value [1] is listed as 26.7% and the residual variability [1] is listed as 15.6%. The “overall 30-day mortality rate” value ([2]; 6/76) was 7.9%, the “treatment failure, overall” value ([2]; 18 of 76 patients) was 23.7% and the 30-day mortality ([2]; fAUC24/MICEtest < 462 (n = 49)) was 6 (12.2) n (%). The 90-day mortality ([2]; fAUC24/MICEtest < 462 (n = 49)) was 17 (34.7) n (%), the In-hospital mortality ([2]; fAUC24/MICEtest < 462 (n = 49)) was 12 (24.5) n (%) and the “Readmission within 90 days after bacteraemia” value ([2]; fAUC24/MICEtest < 462 (n = 49)) was 22 (44.9) n (%). For the same substance, the Relapse ([2]; fAUC24/MICEtest < 462 (n = 49)) was 7 (14.3) n (%), the Treatment failure ([2]; fAUC24/MICEtest < 462 (n = 49)) was 17 (34.7) n (%) and the 30-day mortality ([2]; fAUC24/MICEtest ≥ 462 (n = 27)) was 0 (0.0) n (%). The 90-day mortality ([2]; fAUC24/MICEtest ≥ 462 (n = 27)) was 3 (11.1) n (%), the In-hospital mortality ([2]; fAUC24/MICEtest ≥ 462 (n = 27)) was 2 (7.4) n (%) and the “Readmission within 90 days after bacteraemia” value ([2]; fAUC24/MICEtest ≥ 462 (n = 27)) was 8 (29.6) n (%). For the same substance, the Relapse ([2]; fAUC24/MICEtest ≥ 462 (n = 27)) was 3 (11.1) n (%), the Treatment failure ([2]; fAUC24/MICEtest ≥ 462 (n = 27)) was 1 (3.7) n (%) and the “Odds ratio (95% CI) of treatment failure for fAUC24/MICEtest ≥ 462, multivariable” value ([2]; logistic regression adjusted for CCI, immunosuppressed state, Pitt bacteraemia score) was 0.099 (0.005–0.562). The “Odds ratio (95% CI) of treatment failure for fAUC24/MICEtest ≥ 462, univariable” value ([2]; logistic regression, univariable) was 0.072 (0.004–0.389), the “incidence of treatment failure” value ([2]; patients with fAUC24/MICEtest < 462) was 34.7% and the “incidence of treatment failure” value ([2]; patients with fAUC24/MICEtest ≥ 462) was 3.7%. The effectiveness versus vancomycin ([3]; GSEF bacteraemia treatment) was “non-inferior to vancomycin”, the “incidence of acute kidney injury (AKI) versus vancomycin” value ([3]; in vivo) was “significantly lower incidence of acute kidney injury (AKI)” and the treatment success ratio ([3]; patients with GSEF bacteraemia) was 64.9%. For the same substance, the “proportion of isolates with MIC ≤ 0.5 mg/L” value ([4]; isolates of the cohort) was 84.2%, the MICEtest ([4]; treatment failure group (n = 18)) was 0.50 (0.35–0.50) mg/L and the MICEtest ([4]; treatment success group (n = 58)) was 0.25 (0.13–0.50) mg/L. The Cmin ([5]; human, in vivo) was 18.3 (15.0–23.1) mg/L, the “inter-individual variability (CV%) for clearance” value ([5]; human, in vivo) was 39.2% and the “inter-individual variability (CV%) for distribution rate parameter K12” value ([5]; human, in vivo) was 0.1%. For the same substance, the “inter-individual variability (CV%) for distribution rate parameter α” value ([5]; human, in vivo) was 4.7%, the “inter-individual variability (CV%) for steady-state volume of distribution” value ([5]; human, in vivo) was 43.8% and the “median Cmin in both groups” value ([5]; human, in vivo) was “approximately 18 mg/L”. The Cmin ([5]; total trough concentration, maintenance phase, treatment failure group (n = 18), median (IQR)) was 18.4 (9.70–23.1) mg/L, the MICWalkAway [6] was at most 2 mg/L and the protein bound [7] was “approximately 90%”.
